Reference: patent US7642251B2, “Compounds for the treatment of hepatitis C” (Bristol-Myers Squibb Company, priority 2007, dated 2010)
Where two headings read alike, the source gives them in different places.

Assays:
HCV replicon cells = test: HCV replicon FRET assay; assay type: cell-based; conditions: Hepatitis C virus
Text: FRET Assay Preparation. To perform the HCV FRET screening assay, 96-well cell culture plates were used. The FRET peptide (Anaspec, Inc.) (Taliani et al., Anal. Biochem. 1996, 240, 60-67) contains a fluorescence donor, EDANS, near one end of the peptide and an acceptor, DABCYL, near the other end. The fluorescence of the peptide is quenched by […] resonance energy transfer (RET) between the donor and the acceptor, but as the NS3 protease cleaves the peptide the products are released from RET quenching and the fluorescence of the donor becomes apparent. The assay reagent was made as follows: 5× cell Luciferase cell culture lysis reagent from Promega (#E153A) diluted to 1× with dH2O, NaCl added to 150 mM final, the FRET peptide diluted to 20 μM final from a 2 mM stock.
To prepare plates, HCV replicon cells, with or without a Renilla luciferase reporter gene, were trypsinized and placed into each well of a 96-well plate with titrated test compounds added in columns 3 through 12; columns 1 and 2 contained a control compound (HCV protease inhibitor), and the bottom row contained cells without compound. The plates were then placed in a CO2 incubator at 37° C.
Assays. Subsequent to addition of the test compounds described above (FRET Assay Preparation), at various times the plate was removed and Alamar blue solution (Trek Diagnostics, #00-100) was added per well as a measure of cellular toxicity. After reading in a Cytoflour 4000 instrument (PE Biosystems), plates were rinsed with PBS and then used for FRET assay by the addition of 30 ul of the FRET peptide assay reagent described above (FRET Assay Preparation) per well. The plate was then placed into the Cytoflour 4000 instrument which had been set to 340 excite/490 emission, automatic mode for 20 cycles and the plate read in a kinetic mode. Typically, the signal to noise using an endpoint analysis after the reads was at least three-fold. Alternatively, after Alamar blue reading, plates were rinsed with PBS, 50 ul of DMEM (high glucose) without phenol red was added and plates were then used for luciferase assay using the Promega Dual-Glo Luciferase Assay System.
Compound analysis was determined by quantification of the relative HCV replicon inhibition and the relative cytotoxicity values. To calculate cytoxicity values, the average Alamar Blue fluorescence signals from the control wells were set as 100% non-toxic. The individual signals in each of the compound test wells were then divided by the average control signal and multiplied by 100% to determine […]. To calculate the HCV replicon inhibition values, an average background value was obtained from the two wells containing the highest amount of HCV protease inhibitor at the end of the assay period. These numbers were similar to those obtained from naïve Huh-7 cells.
The background numbers were then subtracted from the average signal obtained from the control wells and this number was used as 100% activity. The individual signals in each of the compound test wells were then divided by the averaged control values after background subtraction and multiplied by 100% to determine percent activity. EC50 values for a protease inhibitor titration were calculated as the concentration which caused a 50% reduction in FRET or luciferase activity. The two numbers generated for the compound plate, percent cytoxicity and percent activity were used to determine compounds of interest for further analysis.

HCV NS5B = target: T1, HCV NS5B (Hepatitis C virus genotype 1b, UniProt Q9WMX2); test: Modified HCV NS5B RdRp enzyme assay (preincubation protocol); assay type: biochemical
T1 construct: The cDNA encoding the NS5B protein of HCV, genotype 1b; made in house; host or cells: E. coli BL21(DE3)
Protocol: HCV NS5B RdRp cloning, expression, and purification. The cDNA encoding the NS5B protein of HCV, genotype 1b, was cloned into the pET21a expression vector. The protein was expressed with an 18 amino acid C-terminal truncation to enhance the solubility. The E. coli competent cell line BL21(DE3) was used for expression of the protein. Cultures were grown at 37° C. for ˜4 hours until the cultures reached an optical density of 2.0 at 600 nm. The cultures were cooled to 20° C. and induced with 1 mM IPTG. Fresh ampicillin was added to a final concentration of 50 μg/ml and the cells were grown overnight at 20° C.
Cell pellets (3 L) were lysed for purification to yield 15-24 mgs of purified NS5B. The lysis buffer consisted of 20 mM Tris-HCl, pH 7.4, 500 mM NaCl, 0.5% triton X-100, 1 mM DTT, 1 mM EDTA, 20% glycerol, 0.5 mg/ml lysozyme, 10 mM MgCl2, 15 ug/ml deoxyribonuclease I, and Complete™ protease inhibitor tablets (Roche). After addition of the lysis buffer, frozen cell pellets were resuspended using a tissue homogenizer. To reduce the viscosity of the sample, aliquots of the lysate were sonicated on ice using a microtip attached to a Branson sonicator. The sonicated lysate was centrifuged at 100,000×g for 1 hr at 4° C. and filtered through a 0.2 μm filter unit (Corning).
The protein was purified using three sequential chromatography steps: Heparin sepharose CL-6B, polyU sepharose 4B, and Hitrap SP sepharose (Pharmacia). The chromatography buffers were identical to the lysis buffer but contained no lysozyme, deoxyribonuclease I, MgCl2 or protease inhibitor and the NaCl concentration of the buffer was adjusted according to the requirements for charging the protein onto the column. Each column was eluted with a NaCl gradient which varied in length from 5-50 column volumes depending on the column type. After the final chromatography step, the resulting purity of the enzyme is >90% based on SDS-PAGE analysis. The enzyme was aliquoted and stored at −80° C.
Standard HCV NS5B RdRp enzyme assay. HCV RdRp genotype 1b assays were run in a final volume of 60 μl in 96 well plates (Costar 3912). The assay buffer is composed of 20 mM Hepes, pH 7.5, 2.5 mM KCl, 2.5 mM MgCl2, 1 mM DTT, 1.6 U RNAse inhibitor (Promega N2515), 0.1 mg/ml BSA (Promega R3961), and 2% glycerol. All compounds were serially diluted (3-fold) in DMSO and diluted further in water such that the final concentration of DMSO in the assay was 2%. HCV RdRp genotype 1b enzyme was used at a final concentration of 28 nM. A polyA template was used at 6 nM, and a biotinylated oligo-dT12 primer was used at 180 nM final concentration. Template was obtained commercially (Amersham 27-4110). Biotinylated primer was prepared by Sigma Genosys. 3H-UTP was used at 0.6 μCi (0.29 μM total UTP). Reactions were initiated by the addition of enzyme, incubated at 30° C. for 60 min, and stopped by adding 25 μl of 50 mM EDTA containing SPA beads (4 μg/μl, Amersham RPNQ 0007). Plates were read on a Packard Top Count NXT after >1 hr incubation at room temperature.
Modified HCV NS5B RdRp enzyme assay. A modified enzyme assay was performed essentially as described for the standard enzyme assay except for the following: The biotinylated oligo dT12 primer was precaptured on streptavidin-coated SPA beads by mixing primer and beads in assay buffer and incubating at room temperature for one hour. Unbound primer was removed after centrifugation. The primer-bound beads were resuspended in 20 mM Hepes buffer, pH 7.5 and used in the assay at final concentrations of 20 nM primer and 0.67 μg/μl beads. Order of addition in the assay: enzyme (14 nM) was added to diluted compound followed by the addition of a mixture of template (0.2 nM), 3H-UTP (0.6 μCi, 0.29 μM), and primer-bound beads, to initiate the reaction; concentrations given are final. Reactions were allowed to proceed for 4 hours at 30° C.
IC50 values for compounds were determined using seven different [I]. […]

[1] = preincubation protocol, read-out: IC50

T1 sequence (Q9WMX2 2420-2992): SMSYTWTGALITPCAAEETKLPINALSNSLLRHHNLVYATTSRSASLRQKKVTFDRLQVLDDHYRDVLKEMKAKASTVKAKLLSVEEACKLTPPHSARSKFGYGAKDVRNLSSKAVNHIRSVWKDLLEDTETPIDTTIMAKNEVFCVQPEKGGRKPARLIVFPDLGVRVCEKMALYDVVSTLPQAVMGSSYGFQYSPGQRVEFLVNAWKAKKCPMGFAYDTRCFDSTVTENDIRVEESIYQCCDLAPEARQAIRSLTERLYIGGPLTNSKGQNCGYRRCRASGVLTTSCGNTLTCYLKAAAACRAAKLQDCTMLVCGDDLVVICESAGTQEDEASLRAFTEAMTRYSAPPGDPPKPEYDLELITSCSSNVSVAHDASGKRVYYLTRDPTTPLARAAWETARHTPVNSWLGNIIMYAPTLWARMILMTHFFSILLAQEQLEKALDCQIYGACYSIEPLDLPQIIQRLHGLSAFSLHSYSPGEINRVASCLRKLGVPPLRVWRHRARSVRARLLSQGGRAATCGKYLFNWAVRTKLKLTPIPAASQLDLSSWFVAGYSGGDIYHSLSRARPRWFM

SMILES	EC50 (HCV replicon cells) [nM]	IC50 (HCV NS5B) [nM]	EC50 (HCV replicon cells; FRET assay, read-out: EC50) [nM]	IC50 (HCV NS5B; [1]) [nM]
COc1ccc2c(c1)C=C(c1ncccc1C(=O)N1C3CCC1CN(C)C3)Cn1c-2c(C2CCCCC2)c2ccc(C(=O)NS(=O)(=O)N(C)C)cc21	4.58 to 500	4.58 to 500		
COc1ccc2c(c1)C=C(c1ncccc1N(C)C)Cn1c-2c(C2CCCCC2)c2ccc(C(=O)NS(=O)(=O)N(C)C)cc21			4.58 to 500	4.58 to 500
COc1ccc2c(c1)C=C(c1ccc(N3CCOCC3)nn1)Cn1c-2c(C2CCCCC2)c2ccc(C(=O)NS(=O)(=O)N(C)C)cc21			> 500	4.58 to 500
COc1ccc2c(c1)C=C(c1ccccc1C(=O)N1CCOCC1)Cn1c-2c(C2CCCCC2)c2ccc(C(=O)OC(C)(C)C)cc21			> 500	> 500
COc1ccc2c(c1)C=C(c1ccccc1C(F)(F)F)Cn1c-2c(C2CCCCC2)c2ccc(C(=O)NS(=O)(=O)C(C)C)cc21			> 500	4.58 to 500
COc1ccc2c(c1)C=C(c1ncccc1N(C)C)Cn1c-2c(C2CCCCC2)c2ccc(C(=O)O)cc21			4.58 to 500	4.58 to 500
COc1ccc2c(c1)C=C(c1cccc(OCCN(C)C)c1)Cn1c-2c(C2CCCCC2)c2ccc(C(=O)O)cc21			> 500	4.58 to 500
COc1ccc2c(c1)C=C(c1ncccc1C(=O)N1CCOCC1)Cn1c-2c(C2CCCCC2)c2ccc(C(=O)NS(=O)(=O)N(C)C)cc21			4.58 to 500	4.58 to 500
COc1ccc2c(c1)C=C(c1ccccc1OCCN(C)C)Cn1c-2c(C2CCCCC2)c2ccc(C(=O)NS(=O)(=O)C(C)C)cc21			4.58 to 500	4.58 to 500
COc1ccc2c(c1)C=C(c1ccccc1OCCN1CCOCC1)Cn1c-2c(C2CCCCC2)c2ccc(C(=O)NS(=O)(=O)C(C)C)cc21			4.58 to 500	4.58 to 500
COc1ccc2c(c1)C=C(c1nccc(N(C)C)n1)Cn1c-2c(C2CCCCC2)c2ccc(C(=O)NS(=O)(=O)N(C)C)cc21			> 500	4.58 to 500
COc1ccc2c(c1)C=C(c1c(F)cccc1C(F)(F)F)Cn1c-2c(C2CCCCC2)c2ccc(C(=O)NS(=O)(=O)C(C)C)cc21			4.58 to 500	4.58 to 500
COc1ccc2c(c1)C=C(c1ncccc1C(=O)N1CCC(O)CC1)Cn1c-2c(C2CCCCC2)c2ccc(C(=O)NS(=O)(=O)N(C)C)cc21			4.58 to 500	4.58 to 500
COc1ccc2c(c1)C=C(c1ncccc1C(=O)N1CCN(C)CC1)Cn1c-2c(C2CCCCC2)c2ccc(C(=O)NS(=O)(=O)N(C)C)cc21			4.58 to 500	4.58 to 500
COc1ccc2c(c1)C=C(c1ncccc1C(=O)N1CCCC1)Cn1c-2c(C2CCCCC2)c2ccc(C(=O)O)cc21			4.58 to 500	4.58 to 500
COc1ccc2c(c1)C=C(c1ccccc1OC(F)(F)C(F)(F)F)Cn1c-2c(C2CCCCC2)c2ccc(C(=O)NS(=O)(=O)C(C)C)cc21			> 500	4.58 to 500
COc1ccc2c(c1)C=C(c1ncccc1C(=O)N1CCCCC1)Cn1c-2c(C2CCCCC2)c2ccc(C(=O)NS(=O)(=O)N(C)C)cc21			4.58 to 500	4.58 to 500
COc1ccc2c(c1)C=C(c1ncccc1S(=O)(=O)N1CCOCC1)Cn1c-2c(C2CCCCC2)c2ccc(C(=O)O)cc21			4.58 to 500	4.58 to 500
COc1ccc2c(c1)C=C(c1ncccc1S(=O)(=O)N1CCOCC1)Cn1c-2c(C2CCCCC2)c2ccc(C(=O)NS(=O)(=O)N(C)C)cc21			4.58 to 500	4.58 to 500
COc1ccc2c(c1)C=C(c1ncccc1N1CC(C)(C)C1=O)Cn1c-2c(C2CCCCC2)c2ccc(C(=O)NS(=O)(=O)N(C)C)cc21			4.58 to 500	4.58 to 500
COc1ccc2c(c1)C=C(c1ccccc1CS(C)(=O)=O)Cn1c-2c(C2CCCCC2)c2ccc(C(=O)NS(=O)(=O)C(C)C)cc21			4.58 to 500	4.58 to 500
COc1ccc2c(c1)C=C(c1ccccc1S(=O)(=O)N1CCCC1)Cn1c-2c(C2CCCCC2)c2ccc(C(=O)NS(=O)(=O)C(C)C)cc21			> 500	4.58 to 500
COc1ccc2c(c1)C=C(c1ncccc1S(=O)(=O)N1C3CCC1CN(C)C3)Cn1c-2c(C2CCCCC2)c2ccc(C(=O)NS(=O)(=O)N(C)C)cc21	4.58 to 500	4.58 to 500		
COc1ccc2c(c1)C=C(c1cccc3c1OC(F)(F)O3)Cn1c-2c(C2CCCCC2)c2ccc(C(=O)O)cc21			> 500	4.58 to 500
COc1ccc2c(c1)C=C(c1ncccc1C(=O)N1CCCC1)Cn1c-2c(C2CCCCC2)c2ccc(C(=O)NS(=O)(=O)N(C)C)cc21			4.58 to 500	4.58 to 500
COc1ccc2c(c1)C=C(c1cccc(N3CCOCC3)n1)Cn1c-2c(C2CCCCC2)c2ccc(C(=O)O)cc21			> 500	> 500
COc1ccc2c(c1)C1CC1(c1ncccc1C(=O)N1CCN(C)CC1)Cn1c-2c(C2CCCCC2)c2ccc(C(=O)NS(=O)(=O)N(C)C)cc21 (stereo not drawn)			4.58 to 500	4.58 to 500
COc1ccc2c(c1)C=C(c1nccc(N(C)C)n1)Cn1c-2c(C2CCCCC2)c2ccc(C(=O)O)cc21			> 500	> 500
COc1ccc2c(c1)C=C(c1ccccc1NC(=O)C1CC1)Cn1c-2c(C2CCCCC2)c2ccc(C(=O)NS(=O)(=O)C(C)C)cc21			4.58 to 500	4.58 to 500
COc1ccc2c(c1)C=C(c1ccccc1C(=O)N1C3CCC1CN(C)C3)Cn1c-2c(C2CCCCC2)c2ccc(C(=O)NS(=O)(=O)C(C)C)cc21	4.58 to 500	4.58 to 500		
